Reference: ChEMBL document CHEMBL3885861, “Open TG-GATES”

Species: Rattus norvegicus
Assay: Open TG-GATES - Regimen: Single
Type: toxicity, organism-based, Sprague-Dawley
Parameters: regimen Single, gender Male, age 6 weeks
Conditions: in vivo, po, 0 mg/kg, route gavage, dose level Control; for APTT / Bas / Eos / Fbg / Hb / Ht / Lym / MCH / MCHC / MCV / Mono / Neu / PT / Plat / RBC / Ret / WBC: tissue Blood; for KIDNEY_L / KIDNEY_R / KIDNEY_TOTAL: tissue Kidney; for LIVER: tissue Liver; for A/G / ALP / ALT / AST / BUN / CRE / Ca / Cl / DBIL / GLC / IP / K / LDH / Na / PL / RALB / TBIL / TC / TG / TP / gamma-GTP: tissue Plasma

Question: `CN(C)CCN(Cc1cccs1)c1ccccn1` was tested. Which TERMINAL_BW (9 h) did it give?
Answer: 180.7 g

Question: And the APTT (9 h)?
Answer: 20.7 s

Question: What about the Bas (9 h) of the same molecule?
Answer: 0%

Question: What about the Eos (9 h) of the same molecule?
Answer: 0.8%

Question: And the Fbg (9 h)?
Answer: 296.8 mg/dL

Question: And the Hb (9 h)?
Answer: 13 g/dL

Question: What about the Ht (9 h) of the same molecule?
Answer: 39.3%

Question: And the Lym (9 h)?
Answer: 82.2%

Question: And the MCH (9 h)?
Answer: 21.1 pg

Question: What about the MCHC (9 h) of the same molecule?
Answer: 33.1%

Question: What about the MCV (9 h) of the same molecule?
Answer: 63.9 fL

Question: What about the Mono (9 h) of the same molecule?
Answer: 1.6%

Question: And the Neu (9 h)?
Answer: 14.8%

Question: What about the PT (9 h) of the same molecule?
Answer: 15.6 s

Question: And the Plat (9 h)?
Answer: 121.1 x10_4/uL

Question: What about the RBC (9 h) of the same molecule?
Answer: 615.8 x10_4/ul

Question: What about the Ret (9 h) of the same molecule?
Answer: 7.7%

Question: What about the WBC (9 h) of the same molecule?
Answer: 69.3 x10_2/uL

Question: And the KIDNEY_L (9 h)?
Answer: 0.8 g

Question: And the KIDNEY_R (9 h)?
Answer: 0.8 g

Question: And the KIDNEY_TOTAL (9 h)?
Answer: 1.6 g

Question: What about the LIVER (9 h) of the same molecule?
Answer: 7.3 g

Question: What about the A/G (9 h) of the same molecule?
Answer: 1.2

Question: And the ALP (9 h)?
Answer: 1371.8 IU/L

Question: And the ALT (9 h)?
Answer: 33.8 IU/L

Question: And the AST (9 h)?
Answer: 66.4 IU/L

Question: What about the BUN (9 h) of the same molecule?
Answer: 11.2 mg/dL

Question: What about the CRE (9 h) of the same molecule?
Answer: 0.2 mg/dL

Question: And the Ca (9 h)?
Answer: 10.1 mg/dL

Question: What about the Cl (9 h) of the same molecule?
Answer: 106.8 meq/L

Question: What about the DBIL (9 h) of the same molecule?
Answer: 0 mg/dL

Question: What about the GLC (9 h) of the same molecule?
Answer: 177.8 mg/dL

Question: And the IP (9 h)?
Answer: 9.6 mg/dL

Question: And the K (9 h)?
Answer: 4.2 meq/L

Question: What about the LDH (9 h) of the same molecule?
Answer: 171.2 IU/L

Question: And the Na (9 h)?
Answer: 142.4 meq/L

Question: What about the PL (9 h) of the same molecule?
Answer: 133.2 mg/dL

Question: What about the RALB (9 h) of the same molecule?
Answer: 2.9 g/dL

Question: And the TBIL (9 h)?
Answer: 0.018 mg/dL

Question: What about the TC (9 h) of the same molecule?
Answer: 73.4 mg/dL

Question: And the TG (9 h)?
Answer: 59.4 mg/dL

Question: And the TP (9 h)?
Answer: 5.3 g/dL

Question: What about the gamma-GTP (9 h) of the same molecule?
Answer: 1 IU/L

Question: What about the TERMINAL_BW (24 h) of the same molecule?
Answer: 200.8 g

Question: And the APTT (24 h)?
Answer: 20.1 s

Question: What about the Bas (24 h) of the same molecule?
Answer: 0%

Question: What about the Eos (24 h) of the same molecule?
Answer: 0.8%

Question: And the Fbg (24 h)?
Answer: 280.8 mg/dL

Question: What about the Hb (24 h) of the same molecule?
Answer: 12.9 g/dL

Question: And the Ht (24 h)?
Answer: 39.1%

Question: What about the Lym (24 h) of the same molecule?
Answer: 79.2%

Question: What about the MCH (24 h) of the same molecule?
Answer: 21.2 pg

Question: And the MCHC (24 h)?
Answer: 33%

Question: What about the MCV (24 h) of the same molecule?
Answer: 64.3 fL

Question: What about the Mono (24 h) of the same molecule?
Answer: 2.4%

Question: What about the Neu (24 h) of the same molecule?
Answer: 17%

Question: What about the PT (24 h) of the same molecule?
Answer: 16.5 s

Question: And the Plat (24 h)?
Answer: 120.3 x10_4/uL

Question: And the RBC (24 h)?
Answer: 608.2 x10_4/ul

Question: And the Ret (24 h)?
Answer: 8%

Question: And the WBC (24 h)?
Answer: 89.7 x10_2/uL

Question: What about the KIDNEY_L (24 h) of the same molecule?
Answer: 0.9 g

Question: What about the KIDNEY_R (24 h) of the same molecule?
Answer: 0.9 g

Question: And the KIDNEY_TOTAL (24 h)?
Answer: 1.8 g

Question: And the LIVER (24 h)?
Answer: 9.4 g

Question: And the A/G (24 h)?
Answer: 1.2

Question: And the ALP (24 h)?
Answer: 1802.6 IU/L

Question: And the ALT (24 h)?
Answer: 41.6 IU/L

Question: What about the AST (24 h) of the same molecule?
Answer: 71.8 IU/L

Question: What about the BUN (24 h) of the same molecule?
Answer: 16.8 mg/dL

Question: And the CRE (24 h)?
Answer: 0.2 mg/dL

Question: And the Ca (24 h)?
Answer: 11 mg/dL

Question: What about the Cl (24 h) of the same molecule?
Answer: 105.6 meq/L

Question: And the DBIL (24 h)?
Answer: 0.002 mg/dL

Question: And the GLC (24 h)?
Answer: 188 mg/dL

Question: What about the IP (24 h) of the same molecule?
Answer: 7.4 mg/dL

Question: And the K (24 h)?
Answer: 4.4 meq/L

Question: And the LDH (24 h)?
Answer: 206.4 IU/L

Question: What about the Na (24 h) of the same molecule?
Answer: 142.4 meq/L

Question: What about the PL (24 h) of the same molecule?
Answer: 149.8 mg/dL

Question: What about the RALB (24 h) of the same molecule?
Answer: 3 g/dL

Question: And the TBIL (24 h)?
Answer: 0.018 mg/dL

Question: What about the TC (24 h) of the same molecule?
Answer: 77.8 mg/dL

Question: And the TG (24 h)?
Answer: 92.6 mg/dL

Question: What about the TP (24 h) of the same molecule?
Answer: 5.4 g/dL

Question: What about the gamma-GTP (24 h) of the same molecule?
Answer: 1 IU/L
